Laboratory results taken from US4471131A, “Novel silyl esters of N-phosphonomethylglycine” (Monsanto Company, priority 1983, dated 1984).

Assays:
Experiment in all cases: post-emergence herbicidal activity, greenhouse
Type in all cases: in vivo
Hemp Sesbania = conditions: Table III, 2 WAT
From the text: (§1) A good grade of top soil is placed in aluminum pans having holes in the bottom and compacted to a depth of 0.95 to 1.27 cm. from the top of the pan. A predetermined number of seeds of each of several dicotyledonous and moncotyledonous annual plant species and/or vegetative propagules for the perennial plant species were placed on the soil and pressed into the soil surface. The seeds and/or vegetative propagules are covered with soil and leveled. The pans are then placed on a sand bench in the greenhouse and watered from below as needed. After the plants reach the desired age (two to three weeks), each pan, except for the control pans, is removed individually to a spraying chamber and sprayed by means of an atomizer at the rates noted. In the spray solution is an amount of an emulsifying agent mixture to give a spray solution or suspension which contains about 0.4% by weight of the emulsifier. The spray solution or suspension contains a sufficient amount of the candidate chemical in order to give application rates corresponding to those set forth in the tables. The pans were returned to the greenhouse and watered as before and the injury to the plants as compared to the control is observed at approximately two and four weeks and the results recorded. In the tables, WAT means "weeks after treatment."
(§2) The post-emergent herbicidal activity index used in Tables II and III is as follows:
(§3) The plant species utilized in these tests are identified by letter in accordance with the following legend: […]

Johnsongrass = conditions: Table II, formulated immediately prior to treatment
From the text: as §1, §2, §3

Common Lambsquarters = tested on: Common Lambsquarters
From the text: as §1, §2, §3

Barnyardgrass = tested on: Barnyardgrass
From the text: as §1, §2, §3

Panicum Spp = conditions: Table III; 2 WAT; 5.6 kg/h
From the text: as §1, §2, §3

Cocklebur = tested on: Cocklebur
From the text: as §1, §2, §3

Canada Thistle = conditions: Table II, formulated immediately prior to treatment
From the text: as §1, §2, §3

Wild Buckwheat = conditions: Table III, 2 WAT
From the text: as §1, §2, §3

Yellow Nutsedge = conditions: Table II, formulated immediately prior to treatment
From the text: as §1, §2, §3

Velvetleaf = tested on: Velvetleaf
From the text: as §1, §2, §3

Downy Brome = tested on: Downy Brome
From the text: as §1, §2, §3

Sugar Beet = conditions: Table III; 2 WAT; 5.6 kg/h
From the text: as §1, §2, §3

Quackgrass = conditions: Table II, formulated immediately prior to treatment
From the text: as §1, §2, §3

Soybean = conditions: Table III, 2 WAT
From the text: as §1, §2, §3

Large Crabgrass = conditions: Table III; 2 WAT; 5.6 kg/h
From the text: as §1, §2, §3

Rice = conditions: Table III, 2 WAT
From the text: as §1, §2, §3

Pennsylvania Smartweed = tested on: Pennsylvania Smartweed
From the text: as §1, §2, §3

Morningglory = tested on: Morningglory
From the text: as §1, §2, §3

[1] = Table II, 2 WAT, 5.6 kg/h, formulated immediately prior to treatment
[2] = Table II, 2 WAT, 11.2 kg/h, formulated immediately prior to treatment
[3] = Table II, 4 WAT, 5.6 kg/h, formulated immediately prior to treatment
[4] = Table II, 4 WAT, 11.2 kg/h, formulated immediately prior to treatment

CC(C)(C)[Si](C)(C)OP(=O)(CNCC(=O)OCCc1ccccc1)O[Si](C)(C)C(C)(C)C [Ex. 10, Glycine, N--((Bis[((1,1-Dimethylethyl)Dimethylsilyl)Oxy]Phosphinyl)Methyl)-,2-Phenylethyl Ester Hydrate]
0 (0-24% inhibition): Plant Response Index (R) (Hemp Sesbania; 1.1 kg/h) | Plant Response Index (R) (Hemp Sesbania; 5.6 kg/h) | Plant Response Index (I) (Johnsongrass; 2 WAT, 5.6 kg/h) | Plant Response Index (I) (Johnsongrass; 4 WAT, 5.6 kg/h) | Plant Response Index (B) (Cocklebur; [3]) | Plant Response Index (B) (Cocklebur; Table III, 2 WAT, 1.1 kg/h) | Plant Response Index (A) (Canada Thistle; 2 WAT, 5.6 kg/h) | Plant Response Index (A) (Canada Thistle; 4 WAT, 5.6 kg/h) | Plant Response Index (Q) (Wild Buckwheat; 1.1 kg/h) | Plant Response Index (Q) (Wild Buckwheat; 5.6 kg/h) | Plant Response Index (C) (Velvetleaf; [1]) | Plant Response Index (C) (Velvetleaf; [3]) | Plant Response Index (J) (Downy Brome; [1]) | Plant Response Index (J) (Downy Brome; [3]) | Plant Response Index (J) (Downy Brome; Table III, 2 WAT, 1.1 kg/h) | Plant Response Index (H) (Quackgrass; 2 WAT, 5.6 kg/h) | Plant Response Index (H) (Quackgrass; 4 WAT, 5.6 kg/h) | Plant Response Index (L) (Soybean; 1.1 kg/h) | Plant Response Index (L) (Soybean; 5.6 kg/h) | Plant Response Index (O) (Rice; 1.1 kg/h) | Plant Response Index (O) (Rice; 5.6 kg/h) | Plant Response Index (D) (Morningglory; [3]) | Plant Response Index (D) (Morningglory; Table III, 2 WAT, 5.6 kg/h)
1 (25-49% inhibition): Plant Response Index (I) (Johnsongrass; 2 WAT, 11.2 kg/h) | Plant Response Index (I) (Johnsongrass; 4 WAT, 11.2 kg/h) | Plant Response Index (K) (Barnyardgrass; [1]) | Plant Response Index (B) (Cocklebur; [1]) | Plant Response Index (G) (Yellow Nutsedge; 2 WAT, 5.6 kg/h) | Plant Response Index (J) (Downy Brome; [2]) | Plant Response Index (J) (Downy Brome; [4]) | Plant Response Index (J) (Downy Brome; Table III, 2 WAT, 5.6 kg/h) | Plant Response Index (H) (Quackgrass; 2 WAT, 11.2 kg/h) | Plant Response Index (H) (Quackgrass; 4 WAT, 11.2 kg/h) | Plant Response Index (F) (Pennsylvania Smartweed; [1]) | Plant Response Index (F) (Pennsylvania Smartweed; [3]) | Plant Response Index (D) (Morningglory; [1])
3 (75-99% inhibition): Plant Response Index (E) (Common Lambsquarters; [2]) | Plant Response Index (E) (Common Lambsquarters; [3]) | Plant Response Index (E) (Common Lambsquarters; [4]) | Plant Response Index (E) (Common Lambsquarters; Table III, 2 WAT, 5.6 kg/h) | Plant Response Index (K) (Barnyardgrass; [4]) | Plant Response Index (S) (Panicum Spp) | Plant Response Index (M) (Sugar Beet) | Plant Response Index (T) (Large Crabgrass) | Plant Response Index (F) (Pennsylvania Smartweed; [2]) | Plant Response Index (F) (Pennsylvania Smartweed; [4])
2 (50-74% inhibition): Plant Response Index (E) (Common Lambsquarters; [1]) | Plant Response Index (E) (Common Lambsquarters; Table III, 2 WAT, 1.1 kg/h) | Plant Response Index (K) (Barnyardgrass; [2]) | Plant Response Index (K) (Barnyardgrass; [3]) | Plant Response Index (K) (Barnyardgrass; Table III, 2 WAT, 5.6 kg/h) | Plant Response Index (B) (Cocklebur; [2]) | Plant Response Index (B) (Cocklebur; [4]) | Plant Response Index (B) (Cocklebur; Table III, 2 WAT, 5.6 kg/h) | Plant Response Index (A) (Canada Thistle; 2 WAT, 11.2 kg/h) | Plant Response Index (A) (Canada Thistle; 4 WAT, 11.2 kg/h) | Plant Response Index (G) (Yellow Nutsedge; 2 WAT, 11.2 kg/h) | Plant Response Index (G) (Yellow Nutsedge; 4 WAT, 5.6 kg/h) | Plant Response Index (G) (Yellow Nutsedge; 4 WAT, 11.2 kg/h) | Plant Response Index (C) (Velvetleaf; [2]) | Plant Response Index (C) (Velvetleaf; [4]) | Plant Response Index (C) (Velvetleaf; Table III, 2 WAT, 5.6 kg/h) | Plant Response Index (F) (Pennsylvania Smartweed; Table III, 2 WAT, 1.1 kg/h) | Plant Response Index (F) (Pennsylvania Smartweed; Table III, 2 WAT, 5.6 kg/h) | Plant Response Index (D) (Morningglory; [2]) | Plant Response Index (D) (Morningglory; [4])
